Results: patent US6436373B1, “Oligomeric diarylbutadienes” (BASF Aktiengesellschaft, priority 1998, dated 2002)

Assay: UV absorption (λmax and specific absorbance E1^1)
Type: physicochemical
Conditions: for λmax.: UV absorption maximum, no unit or solvent printed; for E1^1: specific absorbance at λmax, solvent not given

| λmax. | E1^1 | SMILES |
| --- | --- | --- |
| 336 | 800 | CCOC(=O)/C(=C/C=C(c1ccccc1)c1ccccc1)C(=O)OCCOC(=O)/C(=C\C=C(c1ccccc1)c1ccccc1)C(=O)OCC [Example 2] |
| 354 | 850 | N#C/C(=C/C=C(c1ccccc1)c1ccccc1)C(=O)OCCOC(=O)/C(C#N)=C\C=C(c1ccccc1)c1ccccc1 [Example 3] |
